Experimental data reported in patent publication US20240368127A1, “HSD17B13 INHIBITORS AND USES THEREOF” (FL2022-001, Inc., priority 2021, published 2024).
Counter-ions that a name gives are not always drawn.

biological target: T1, Recombinant human HSD17B13 enzyme (Homo sapiens, UniProt Q7Z5P4); assay: HSD17b13 NAD(P)H-Glo biochemical assay; settings: 50 μM estradiol, 1 mM NAD+, 37° C. for 3 hours; read-out: HSD17β13 IC50
T1 sequence (Q7Z5P4 20-300): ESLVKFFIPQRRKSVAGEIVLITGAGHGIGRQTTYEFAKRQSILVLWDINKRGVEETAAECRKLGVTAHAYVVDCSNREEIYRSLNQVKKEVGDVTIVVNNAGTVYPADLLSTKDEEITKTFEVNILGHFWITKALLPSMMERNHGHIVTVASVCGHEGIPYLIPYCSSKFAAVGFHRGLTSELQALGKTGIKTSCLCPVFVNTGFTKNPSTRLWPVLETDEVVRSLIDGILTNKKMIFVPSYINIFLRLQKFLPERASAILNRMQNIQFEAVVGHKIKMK
Procedure, shortened: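 Enzyme preincubated with inhibitor 20 min at RT in 20 mM Tris pH7.4, 0.002% Tween-20, 0.02% BSA, then reacted 3 h at 37° C with 50 μM estradiol and 1 mM NAD+ (final). NADH formation read by NAD(P)H-Glo luminescence after 1 h at RT.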

| Structure (SMILES) | IC50 [nM] |
| --- | --- |
| Cn1nc(-c2cc(O)c(F)c(F)c2C#N)c2cnc(N3CCN(S(C)(=O)=O)C[C@H]3Cc3ccccc3)nc21 [Compound 11.15, (R)-6-(6-(2-Benzyl-4-(methylsulfonyl)piperazin-1-yl)-1-methyl-1H-pyrazolo[3,4-d]pyrimidin-3-yl)-2,3-difluoro-4-hydroxybenzonitrile] | ≤ 100 |
| Cn1nc(-c2c(C#N)cc(F)c(O)c2F)c2cnc(N3CCN(S(C)(=O)=O)C[C@H]3Cc3ccccc3)nc21 [Compound 11.16, 2-(6-((R)-2-Benzyl-4-(methylsulfonyl)piperazin-1-yl)-1-methyl-1H-pyrazolo[3,4-d]pyrimidin-3-yl)-3,5-difluoro-4-hydroxybenzonitrile] | ≤ 100 |
| C#Cc1cc(-c2nn(C)c3nc(N4CCN(S(C)(=O)=O)C[C@H]4Cc4ccccc4)ncc23)c(F)c(O)c1F [Compound 11.17, (R)-3-(6-(2-Benzyl-4-(methylsulfonyl)piperazin-1-yl)-1-methyl-1H-pyrazolo[3,4-d]pyrimidin-3-yl)-5-ethynyl-2,6-difluorophenol] | ≤ 100 |
| CC#Cc1cc(-c2nn(C)c3nc(N4CCN(S(C)(=O)=O)C[C@H]4Cc4ccccc4)ncc23)c(F)c(O)c1F [Compound 11.18, (R)-3-(6-(2-Benzyl-4-(methylsulfonyl)piperazin-1-yl)-1-methyl-1H-pyrazolo[3,4-d]pyrimidin-3-yl)-2,6-difluoro-5-(prop-1-yn-1-yl)phenol] | ≤ 100 |
| Cc1c(C(F)(F)F)cc(-c2nn(C)c3nc(N4CCN(S(C)(=O)=O)C[C@H]4Cc4ccccc4)ncc23)c(F)c1O [Compound 11.19, (R)-3-(6-(2-Benzyl-4-(methylsulfonyl)piperazin-1-yl)-1-methyl-1H-pyrazolo[3,4-d]pyrimidin-3-yl)-2-fluoro-6-methyl-5-(trifluoromethyl)phenol] | ≤ 100 |
| Cc1c(F)cc(-c2nn(C)c3nc(N4CCN(S(C)(=O)=O)C[C@H]4Cc4ccccc4)ncc23)c(F)c1O [Compound 11.20, (R)-3-(6-(2-Benzyl-4-(methylsulfonyl)piperazin-1-yl)-1-methyl-1H-pyrazolo[3,4-d]pyrimidin-3-yl)-2,5-difluoro-6-methylphenol] | ≤ 100 |
| CN(C)C(=O)N1CCN(c2ncc3c(-c4cc(C(F)(F)F)c(F)c(O)c4F)nn(C)c3n2)C(CC2CC2)C1 (centres unmarked) [Compound 11.21, 3-(Cyclopropylmethyl)-4-(3-(2,4-difluoro-3-hydroxy-5-(trifluoromethyl)phenyl)-1-methyl-1H-pyrazolo[3,4-d]pyrimidin-6-yl)-N,N-dimethylpiperazine-1-carboxamide] | ≤ 100 |
| CCn1nc(-c2cc(C(F)(F)F)c(F)c(O)c2F)c2cnc(N3CCN(S(C)(=O)=O)C[C@H]3Cc3ccccc3)nc21 [Compound 11.22, (R)-3-(6-(2-Benzyl-4-(methylsulfonyl)piperazin-1-yl)-1-ethyl-1H-pyrazolo[3,4-d]pyrimidin-3-yl)-2,6-difluoro-5-(trifluoromethyl)phenol] | ≤ 100 |
| COC(=O)[C@@H]1COCCN1c1ncc2c(-c3cc(C(F)(F)F)c(F)c(O)c3F)nn(C)c2n1 [Compound 11.23, Methyl (S)-4-(3-(2,4-difluoro-3-hydroxy-5-(trifluoromethyl)phenyl)-1-methyl-1H-pyrazolo[3,4-d]pyrimidin-6-yl)morpholine-3-carboxylate] | ≤ 100 |
| CC(C)NC(=O)[C@@H]1COCCN1c1ncc2c(-c3cc(C(F)(F)F)c(F)c(O)c3F)nn(C)c2n1 [Compound 11.24, (S)-4-(3-(2,4-Difluoro-3-hydroxy-5-(trifluoromethyl)phenyl)-1-methyl-1H-pyrazolo[3,4-d]pyrimidin-6-yl)-N-isopropylmorpholine-3-carboxamide] | ≤ 100 |
| Cn1nc(-c2cc(C(F)(F)F)c(F)c(O)c2F)c2cnc(N3CCOC[C@H]3C(=O)NC3CCCCC3)nc21 [Compound 11.25, (S)-N-Cyclohexyl-4-(3-(2,4-difluoro-3-hydroxy-5-(trifluoromethyl)phenyl)-1-methyl-1H-pyrazolo[3,4-d]pyrimdiin-6-yl)morpholine-3-carboxamide] | ≤ 100 |
| Cn1nc(-c2cc(C(F)(F)F)c(F)c(O)c2F)c2cnc(N3CCOC[C@H]3C(=O)N3CCCCC3)nc21 [Compound 11.26, (S)-(4-(3-(2,4-Difluoro-3-hydroxy-5-(trifluoromethyl)phenyl)-1-methyl-1H-pyrazolo[3,4-d]pyrimidin-6-yl)morpholin-3-yl)(piperidin-1-yl)methanone] | ≤ 100 |
| Cn1nc(-c2cc(C(F)(F)F)c(F)c(O)c2F)c2cnc(N3CCN(S(C)(=O)=O)CC3CC3CCC3)nc21 (centres unmarked) [Compound 11.27, 3-(6-(2-(Cyclobutylmethyl)-4-(methylsulfonyl)piperazin-1-yl)-1-methyl-1H-pyrazolo[3,4-d]pyrimidin-3-yl)-2,6-difluoro-5-(trifluoromethyl)phenol] | ≤ 100 |
| Cn1nc(-c2cc(C(F)(F)F)c(F)c(O)c2F)c2cnc(N3CCN(C(N)=O)CC3CC3CC3)nc21 (centres unmarked) [Compound 11.28, 3-(Cyclopropylmethyl)-4-(3-(2,4-difluoro-3-hydroxy-5-(trifluoromethyl)phenyl)-1-methyl-1H-pyrazolo[3,4-d]pyrimidin-6-yl)piperazine-1-carboxamide] | ≤ 100 |
| Cn1nc(-c2cc(C(F)(F)F)c(F)c(O)c2F)c2cnc(N3CCO[C@@H](Cc4ccccc4)C3)nc21 [Compound 12, (S)-3-(6-(2-Benzylmorpholino)-1-methyl-1H-pyrazolo[3,4-d]pyrimidin-3-yl)-2,6-difluoro-5-(trifluoromethyl)phenol] | ≤ 100 |
| Cn1nc(-c2cc(C(F)(F)F)c(F)c(O)c2F)c2cnc(N3CCO[C@@H](Cc4cccnc4)C3)nc21 [Compound 12.01, (S)-2,6-Difluoro-3-(1-methyl-6-(2-(pyridin-3-ylmethyl)morpholino)-1H-pyrazolo[3,4-d]pyrimidin-3-yl)-5-(trifluoromethyl)phenol] | ≤ 100 |

Continued, values first:

| IC50 [nM] | Structure (SMILES) |
| --- | --- |
| ≤ 100 | Cn1nc(-c2cc(C(F)(F)F)c(F)c(O)c2F)c2cnc(N3CCO[C@@H](Cc4ccc(C#N)cc4)C3)nc21 [Compound 12.02, (S)-4-((4-(3-(2,4-Difluoro-3-hydroxy-5-(trifluoromethyl)phenyl)-1-methyl-1H-pyrazolo[3,4-d]pyrimidin-6-yl)morpholin-2-yl)methyl)benoznitrile] |
| ≤ 100 | Cn1nc(-c2cc(C(F)(F)F)c(F)c(O)c2F)c2cnc(N3CCO[C@@H](Cc4cccc(C#N)c4)C3)nc21 [Compound 12.03, (S)-3-((4-(3-(2,4-Difluoro-3-hydroxy-5-(trifluoromethyl)phenyl)-1-methyl-1H-pyrazolo[3,4-d]pyrimidin-6-yl)morpholin-2-yl)methyl)benzonitrile] |
| ≤ 100 | Cn1nc(-c2cc(C(F)(F)F)c(F)c(O)c2F)c2cnc(N3CCO[C@@H](Cc4ccc(C(N)=O)cc4)C3)nc21 [Compound 12.04, (S)-4-((4-(3-(2,4-Difluoro-3-hydroxy-5-(trifluoromethyl)phenyl)-1-methyl-1H-pyrazolo[3,4-d]pyrimidin-6-yl)morpholin-2-yl)methyl)benzamide] |
| ≤ 100 | Cn1nc(-c2cc(C(F)(F)F)c(F)c(O)c2F)c2cnc(N3CCO[C@@H](Cc4cccc(C(N)=O)c4)C3)nc21 [Compound 12.05, (S)-3-((4-(3-(2,4-Difluoro-3-hydroxy-5-(trifluoromethyl)phenyl)-1-methyl-1H-pyrazolo[3,4-d]pyrimidin-6-yl)morpholin-2-yl)methyl)benzamide] |
| ≤ 100 | Cn1nc(-c2cc(C(F)(F)F)c(F)c(O)c2F)c2cnc(N3CCO[C@@H](Cc4cccc(S(N)(=O)=O)c4)C3)nc21 [Compound 12.06, (S)-3-((4-(3-(2,4-Difluoro-3-hydroxy-5-(trifluoromethyl)phenyl)-1-methyl-1H-pyrazolo[3,4-d]pyrimidin-6-yl)morpholin-2-yl)methyl)benzenesulfonamide] |
| ≤ 100 | Cc1cccc(C[C@H]2CN(c3ncc4c(-c5cc(C(F)(F)F)c(F)c(O)c5F)nn(C)c4n3)CCO2)c1 [Compound 12.07, (S)-2,6-Difluoro-3-(1-methyl-6-(2-(3-methylbenzyl)morpholin)-1H-pyrazolo[3,4-d]pyrimidin-3-yl)-5-(trifluoromethyl)phenol] |
| ≤ 100 | Cn1nc(-c2cc(C(F)(F)F)c(F)c(O)c2F)c2cnc(N3CCO[C@@H](Cc4ccc(S(N)(=O)=O)cc4)C3)nc21 [Compound 12.08, (S)-4-((4-(3-(2,4-Difluoro-3-hydroxy-5-(trifluoromethyl)phenyl)-1-methyl-1H-pyrazolo[3,4-d]pyrimidin-6-yl)morpholin-2-y)methyl)benzenesulfonamide] |
| ≤ 100 | Cc1ccc([C@@H](O)[C@H]2CN(c3ncc4c(-c5cc(C(F)(F)F)c(F)c(O)c5F)nn(C)c4n3)CCO2)cc1 [Compound 13, 2,6-Difluoro-3-(6-((R)-2-((R)-hydroxy(p-tolyl)methyl)morpholino)-1-methyl-1H-pyrazolo[3,4-d]pyrimidin-3-yl)-5-(trifluoromethyl)phenol] |
| 100 to 1000 | Cn1nc(-c2cc(C(F)(F)F)c(F)c(O)c2F)c2cnc(C3CCCCN3Cc3ccccc3)nc21 (centres unmarked) [Compound 14, 3-(6-(1-Benzylpiperidin-2-yl)-1-methyl-1H-pyrazolo[3,4-d]pyrimidin-3-yl)-2,6-difluoro-5-(trifluoromethyl)phenol hydrochloride] |
| 100 to 1000 | Cn1nc(-c2cc(C(F)(F)F)c(F)c(O)c2F)c2cnc(C3CCCN(Cc4ccccc4)C3)nc21 (centres unmarked) [Compound 14.01, 3-(6-(1-Benzylpiperidin-3-yl)-1-methyl-1H-pyrazolo[3,4-d]pyrimidin-3-yl)-2,6-difluoro-5-(trifluoromethyl)phenol hydrochloride] |
